Consider six compounds from PubChem BioAssay AID1745844 (Carcinogenic Potency Database (CPDB), 2022).

The data set relates to rodent lifetime carcinogenesis bioassay, tumor incidence TD50. In words: chronic cancer bioassays in animals – CPDB, compiled studies (AID 1745844).
[1] abbreviates: mouse, strain B6C3F1, males, by gavage, site: any site (literature study), lesion: several types, types named in the paper, dosed 103 weeks, study length 104 weeks.

Active and inactive are the calls of the source. How the calls were made is not given here.

Broadly, the TD50 is the dose at which the toxic effect under study appears in half of the subjects. In the case of `OC[P+](CO)(CO)CO`, the TD50 by setting is: (mouse, strain B6C3F1, females, by gavage, site: any site (literature study), lesion: several types, types named in the paper, dosed 103 weeks, study length 104 weeks) 908 mg/kg/day (inactive); (mouse, strain B6C3F1, females, by gavage, site: liver, lesion: hepatocellular adenoma + hepatocellular carcinoma + neoplastic nodule, dosed 103 weeks, study length 104 weeks) 200 mg/kg/day; (mouse, strain B6C3F1, females, by gavage, site: lung, lesion: alveolar/bronchiolar adenoma + alveolar/bronchiolar carcinoma, dosed 104 weeks, study length 105 weeks) 234 mg/kg/day; (mouse, strain B6C3F1, females, by gavage, site: multiple organs, lesion: malignant lymphoma, mixed type, dosed 104 weeks, study length 105 weeks) 15.7 mg/kg/day (inactive); (mouse, strain B6C3F1, males, by gavage, site: any site (literature study), lesion: several types, types named in the paper, dosed 104 weeks, study length 105 weeks) 47.3 mg/kg/day; (mouse, strain B6C3F1, males, by gavage, site: lung, lesion: alveolar/bronchiolar adenoma + alveolar/bronchiolar carcinoma, dosed 103 weeks, study length 104 weeks) 103 mg/kg/day. Further, the TD50 reads like this: (mouse, strain B6C3F1, males, by gavage, site: lung, lesion: alveolar/bronchiolar adenoma + alveolar/bronchiolar carcinoma, dosed 104 weeks, study length 105 weeks) 78.5 mg/kg/day; (mouse, strain B6C3F1, males, by gavage, site: multiple organs, lesion: malignant lymphoma, histiocytic type + malignant lymphoma, mixed type + malignant lymphoma, lymphocytic type + malignant lymph, dosed 104 weeks, study length 105 weeks) 11.4 mg/kg/day (inactive); (rat, strain Fischer 344, females, by gavage, site: any site (literature study), lesion: several types, types named in the paper, dosed 103 weeks, study length 104 weeks) 4.78 mg/kg/day (inactive); (rat, strain Fischer 344, females, by gavage, site: any site (literature study), lesion: several types, types named in the paper, dosed 104 weeks, study length 106 weeks) 23.3 mg/kg/day (inactive); (rat, strain Fischer 344, males, by gavage, site: any site (literature study), lesion: several types, types named in the paper, dosed 103 weeks, study length 104 weeks) 14.7 mg/kg/day; (rat, strain Fischer 344, males, by gavage, site: any site (literature study), lesion: several types, types named in the paper, dosed 104 weeks, study length 106 weeks) 1.78 mg/kg/day. For the same compound, the TD50 is 24.5 mg/kg/day (rat, strain Fischer 344, males, by gavage, site: liver, lesion: hepatocellular adenoma + hepatocellular carcinoma + neoplastic nodule, dosed 103 weeks, study length 104 weeks); 12.4 mg/kg/day (rat, strain Fischer 344, males, by gavage, site: liver, lesion: hepatocellular adenoma + hepatocellular carcinoma + neoplastic nodule, dosed 104 weeks, study length 106 weeks); 2.42 mg/kg/day (inactive) (rat, strain Fischer 344, males, by gavage, site: multiple organs, lesion: mononuclear-cell leukemia, dosed 104 weeks, study length 106 weeks); 3.3 mg/kg/day (rat, strain Fischer 344, males, by gavage, site: pituitary gland, anterior, lesion: adenoma, NOS + carcinoma, NOS, dosed 104 weeks, study length 106 weeks); 3.56 mg/kg/day (rat, strain Fischer 344, males, by gavage, site: pituitary gland, anterior, lesion: adenoma, NOS, dosed 104 weeks, study length 106 weeks); 24.9 mg/kg/day (inactive) (rat, strain Fischer 344, males, by gavage, site: subcutaneous tissue, lesion: fibroma, dosed 103 weeks, study length 104 weeks). Moreover, the carcinogen call under setting [1] was “negative (inactive)”.
In the case of `Cn1c(=O)c2[nH]cnc2n(C)c1=O`, for the setting “mouse, strain B6C3F1, females, by gavage, site: all sites, lesion: histiocytic sarcoma, dosed 103 weeks, study length 104 weeks”, the TD50 was 20.5 mg/kg/day (inactive). Besides, the carcinogen call is, setting by setting: under setting [1], “negative (inactive)”; (rat, strain Fischer 344, females, by gavage, site: any site (literature study), lesion: several types, types named in the paper, dosed 104 weeks, study length 104 weeks) “negative (inactive)”; (rat, strain Fischer 344, males, by gavage, site: any site (literature study), lesion: several types, types named in the paper, dosed 104 weeks, study length 104 weeks) “negative (inactive)”.
On to `CC(=O)Oc1c(C)c(C)c2c(c1C)CCC(C)(CCCC(C)CCCC(C)CCCC(C)C)O2` (stereo unspecified), for which the carcinogen call was “negative (inactive)” (rat, strain Charles River CD (Sprague-Dawley), females, in feed, site: any site (literature study), lesion: malignant tumor, dosed 104 weeks, study length 104 weeks); “negative (inactive)” (rat, strain Charles River CD (Sprague-Dawley), females, in feed, site: any site (literature study), lesion: several types, types named in the paper, dosed 104 weeks, study length 104 weeks); “negative (inactive)” (rat, strain Charles River CD (Sprague-Dawley), females, in feed, site: liver, lesion: one or several types, types not named, dosed 52 weeks, study length 52 weeks); “negative (inactive)” (rat, strain Charles River CD (Sprague-Dawley), females, in feed, site: liver, lesion: one or several types, types not named, dosed 104 weeks, study length 104 weeks); “negative (inactive)” (rat, strain Charles River CD (Sprague-Dawley), males, in feed, site: liver, lesion: one or several types, types not named, dosed 52 weeks, study length 52 weeks); “negative (inactive)” (rat, strain Charles River CD (Sprague-Dawley), males, in feed, site: liver, lesion: one or several types, types not named, dosed 104 weeks, study length 104 weeks). Besides, the TD50 (rat, strain Charles River CD (Sprague-Dawley), males, in feed, site: any site (literature study), lesion: malignant tumor, dosed 104 weeks, study length 104 weeks) was 67800 mg/kg/day (inactive) and the TD50 (rat, strain Charles River CD (Sprague-Dawley), males, in feed, site: any site (literature study), lesion: several types, types named in the paper, dosed 104 weeks, study length 104 weeks) is 67800 mg/kg/day (inactive).
For the compound `ClC1C2(Cl)C3C4C5OC5C5C4C1(Cl)C(Cl)(C53)C2(Cl)Cl` (stereo unspecified), the TD50 (mouse, strain B6C3F1, females, in feed, site: any site (literature study), lesion: several types, types named in the paper, dosed 80 weeks, study length 92 weeks) is 0.743 mg/kg/day (inactive); the TD50 (mouse, strain B6C3F1, females, in feed, site: liver, lesion: hepatocellular adenoma + hepatocellular carcinoma + neoplastic nodule, dosed 80 weeks, study length 92 weeks) amounted to 2.53 mg/kg/day; the TD50 (mouse, strain B6C3F1, females, in feed, site: lung, lesion: alveolar/bronchiolar adenoma + alveolar/bronchiolar carcinoma, dosed 80 weeks, study length 92 weeks) was 6.78 mg/kg/day; the TD50 (mouse, strain B6C3F1, males, in feed, site: any site (literature study), lesion: several types, types named in the paper, dosed 80 weeks, study length 93 weeks) is 0.494 mg/kg/day (inactive); the TD50 (mouse, strain B6C3F1, males, in feed, site: liver, lesion: hepatocellular adenoma + hepatocellular carcinoma + neoplastic nodule, dosed 80 weeks, study length 93 weeks) was 1.96 mg/kg/day; the TD50 (mouse, strain B6C3F1, males, in feed, site: lung, lesion: alveolar/bronchiolar adenoma + alveolar/bronchiolar carcinoma, dosed 80 weeks, study length 93 weeks) turned out to be 0.465 mg/kg/day. Also, the TD50 is, setting by setting: (rat, strain Osborne-Mendel, females, in feed, site: any site (literature study), lesion: several types, types named in the paper, dosed 69 weeks, study length 111 weeks) 0.327 mg/kg/day; (rat, strain Osborne-Mendel, females, in feed, site: mammary gland, lesion: adenoma + fibroadenoma, dosed 69 weeks, study length 111 weeks) 0.612 mg/kg/day (inactive); (rat, strain Osborne-Mendel, males, in feed, site: all sites, lesion: hemangioma, dosed 80 weeks, study length 109 weeks) 2.89 mg/kg/day (inactive); (rat, strain Osborne-Mendel, males, in feed, site: liver, lesion: hepatocellular adenoma + hepatocellular carcinoma + neoplastic nodule, dosed 80 weeks, study length 111 weeks) 7.72 mg/kg/day. Besides, for the setting “rat, strain Osborne-Mendel, males, in feed, site: any site (literature study), lesion: several types, types named in the paper, dosed 80 weeks, study length 111 weeks”, the carcinogen call was “negative (inactive)”.
For `O=[O+][O-]`, the TD50 reads like this: (mouse, strain B6C3F1, females, inhaled, site: lung, lesion: alveolar/bronchiolar adenoma + alveolar/bronchiolar carcinoma, dosed 105 weeks, study length 105 weeks) 1.88 mg/kg/day; (mouse, strain B6C3F1, females, inhaled, site: lung, lesion: alveolar/bronchiolar adenoma + alveolar/bronchiolar carcinoma, dosed 130 weeks, study length 130 weeks) 2.09 mg/kg/day; (mouse, strain B6C3F1, females, inhaled, site: lung, lesion: alveolar/bronchiolar adenoma, dosed 130 weeks, study length 130 weeks) 1.78 mg/kg/day; (mouse, strain B6C3F1, females, inhaled, site: lung, lesion: alveolar/bronchiolar carcinoma, dosed 105 weeks, study length 105 weeks) 2.75 mg/kg/day; (mouse, strain B6C3F1, females, inhaled, site: uterus, lesion: endometrial stromal polyp, dosed 105 weeks, study length 105 weeks) 6.49 mg/kg/day; (mouse, strain B6C3F1, males, inhaled, site: any site (literature study), lesion: several types, types named in the paper, dosed 104 weeks, study length 104 weeks) 0.997 mg/kg/day. The TD50 turned out to be 1.54 mg/kg/day (mouse, strain B6C3F1, males, inhaled, site: any site (literature study), lesion: several types, types named in the paper, dosed 130 weeks, study length 130 weeks); 0.314 mg/kg/day (mouse, strain B6C3F1, males, inhaled, site: liver + mesentery + spleen, lesion: hemangiosarcoma, dosed 104 weeks, study length 104 weeks); 1.68 mg/kg/day (mouse, strain B6C3F1, males, inhaled, site: liver, lesion: hepatocellular adenoma + hepatoblastoma + hepatocellular carcinoma, dosed 104 weeks, study length 104 weeks); 2.02 mg/kg/day (mouse, strain B6C3F1, males, inhaled, site: liver, lesion: hepatocellular adenoma + hepatoblastoma + hepatocellular carcinoma, dosed 130 weeks, study length 130 weeks); 0.894 mg/kg/day (mouse, strain B6C3F1, males, inhaled, site: lung, lesion: alveolar/bronchiolar adenoma + alveolar/bronchiolar carcinoma, dosed 104 weeks, study length 104 weeks); 0.961 mg/kg/day (mouse, strain B6C3F1, males, inhaled, site: lung, lesion: alveolar/bronchiolar adenoma + alveolar/bronchiolar carcinoma, dosed 130 weeks, study length 130 weeks). For the same compound, the TD50 reads like this: (mouse, strain B6C3F1, males, inhaled, site: lung, lesion: alveolar/bronchiolar carcinoma, dosed 130 weeks, study length 130 weeks) 0.633 mg/kg/day; (rat, strain Fischer 344, males, inhaled, site: any site (literature study), lesion: several types, types named in the paper, dosed 105 weeks, study length 105 weeks) 1.2 mg/kg/day; (rat, strain Fischer 344, males, inhaled, site: any site (literature study), lesion: several types, types named in the paper, dosed 122 weeks, study length 124 weeks) 0.138 mg/kg/day (inactive); (rat, strain Fischer 344, males, inhaled, site: liver, lesion: hepatocellular adenoma + hepatoblastoma + hepatocellular carcinoma, dosed 122 weeks, study length 124 weeks) 2.41 mg/kg/day; (rat, strain Fischer 344, males, inhaled, site: thyroid gland, lesion: c-cell adenoma + c-cell carcinoma, dosed 105 weeks, study length 105 weeks) 0.0156 mg/kg/day (inactive); (rat, strain Fischer 344, males, inhaled, site: thyroid gland, lesion: c-cell adenoma, dosed 105 weeks, study length 105 weeks) 0.019 mg/kg/day. Besides, the TD50 (rat, strain Sprague-Dawley, males, inhaled, site: lung, lesion: adenoma, dosed 86 weeks, study length 86 weeks) was 0.204 mg/kg/day. Further, the carcinogen call by setting is: (rat, strain Fischer 344, females, inhaled, site: any site (literature study), lesion: several types, types named in the paper, dosed 104 weeks, study length 104 weeks) “negative (inactive)”; (rat, strain Fischer 344, females, inhaled, site: any site (literature study), lesion: several types, types named in the paper, dosed 124 weeks, study length 124 weeks) “negative (inactive)”.
As to `CCS(=O)(=O)c1ccc(S(N)(=O)=O)c2ccccc12`, the TD50 is, setting by setting: (mouse, strain A x IF, females, in feed, site: lung, lesion: adenoma, dosed 100 weeks, study length 100 weeks) 53.4 mg/kg/day; (mouse, strain A x IF, females, in feed, site: urinary bladder, lesion: carcinoma, dosed 100 weeks, study length 100 weeks) 34.2 mg/kg/day; (mouse, strain IF x C57, females, in feed, site: urinary bladder, lesion: carcinoma, dosed 92 weeks, study length 92 weeks) 15.3 mg/kg/day.
